{
  "source": "a compilation of properties of binary mixtures (doi:10.1016/j.molliq.2016.09.008)",
  "experiment": "xn = mol fraction of the nth substance listed",
  "details": "298.15 K, 101 kPa",
  "data": [
    {"smiles": "C[N+](=O)[O-]", "note": "+ CC[NH3+].O=[N+]([O-])[O-]", "values": [
      {"measurement": "electrical conductivity", "setting": "x1 = 1", "result": 0.0031, "unit": "S/m"},
      {"measurement": "viscosity", "setting": "x1 = 1", "result": 0.637, "unit": "mPa·s"}
    ]},
    {"smiles": "CC[NH3+].O=[N+]([O-])[O-]", "note": "+ C[N+](=O)[O-]", "values": [
      {"measurement": "electrical conductivity", "setting": "x1 = 0.0034", "result": 0.0549, "unit": "S/m"},
      {"measurement": "viscosity", "setting": "x1 = 0.0034", "result": 0.652, "unit": "mPa·s"},
      {"measurement": "electrical conductivity", "setting": "x1 = 0.0062", "result": 0.0721, "unit": "S/m"},
      {"measurement": "viscosity", "setting": "x1 = 0.0062", "result": 0.662, "unit": "mPa·s"},
      {"measurement": "electrical conductivity", "setting": "x1 = 0.0112", "result": 0.0945, "unit": "S/m"},
      {"measurement": "viscosity", "setting": "x1 = 0.0112", "result": 0.679, "unit": "mPa·s"},
      {"measurement": "electrical conductivity", "setting": "x1 = 0.0129", "result": 0.1, "unit": "S/m"},
      {"measurement": "viscosity", "setting": "x1 = 0.0129", "result": 0.683, "unit": "mPa·s"},
      {"measurement": "electrical conductivity", "setting": "x2 = 0.0498", "result": 2.34, "unit": "S/m"},
      {"measurement": "viscosity", "setting": "x2 = 0.0498", "result": 34.1, "unit": "mPa·s"},
      {"measurement": "electrical conductivity", "setting": "x2 = 0.1048", "result": 2.4, "unit": "S/m"},
      {"measurement": "viscosity", "setting": "x2 = 0.1048", "result": 31.5, "unit": "mPa·s"},
      {"measurement": "electrical conductivity", "setting": "x2 = 0.2032", "result": 2.56, "unit": "S/m"},
      {"measurement": "viscosity", "setting": "x2 = 0.2032", "result": 23.9, "unit": "mPa·s"},
      {"measurement": "electrical conductivity", "setting": "x2 = 0.3007", "result": 2.7, "unit": "S/m"},
      {"measurement": "viscosity", "setting": "x2 = 0.3007", "result": 20.3, "unit": "mPa·s"},
      {"measurement": "electrical conductivity", "setting": "x2 = 0.3874", "result": 2.94, "unit": "S/m"},
      {"measurement": "viscosity", "setting": "x2 = 0.3874", "result": 15.3, "unit": "mPa·s"},
      {"measurement": "electrical conductivity", "setting": "x2 = 0.4983", "result": 2.71, "unit": "S/m"},
      {"measurement": "viscosity", "setting": "x2 = 0.4983", "result": 8.52, "unit": "mPa·s"}
    ]}
  ]
}
